In brackets after ≈: the same amount, converted by molar mass.
Test system: DLBCL SUDHL4 cells
Assay: CellTiter-Glo 3D cell viability (intracellular ATP) after 48 h drug treatment, 2D suspension vs 3D microcompartments
Format: cell-based
Conditions: Homo sapiens, SU-DHL-4, 48 h
Protocol: FIG. 11: Comparison of the cytotoxic effects of doxorubicin and of etoposide on DLBCL SUDHL4 cells grown in 2D (suspension) or in 3D ± ECM ± Resto. Cells or spheroids at D7 post-encapsulation are treated for 48 h with drugs. At the end of the treatment, cell viability is measured using the CellTiter-Glo® 3D Cell Viability Assay Kit (Promega).
As shown above, drug diffusion is altered in the 3D structures according to the invention. The purpose of the present experiment is to verify whether this alteration is correlated with chemoresistance. For this purpose, the efficacy of two conventional chemotherapies (doxorubicin and etoposide) was tested in parallel on cells grown in suspension (2D) and on cell clusters from cellular microcompartments according to the invention, containing lymphomatous cells alone or in the presence of ECM, with or without Resto stromal cells, treated with increasing concentrations of these chemotherapy molecules.
After 48 h of incubation, cell survival was assessed by measuring intracellular ATP using the CellTiter-Glo® 3D Cell Viability Assay Kit (Promega).

[1] = 3D (lymphomatous cells alone), SUDHL4, D7 post-encapsulation, 48 h
[2] = 3D + ECM + Resto, SUDHL4, D7 post-encapsulation, 48 h
[3] = 3D + ECM, SUDHL4, D7 post-encapsulation, 48 h

Row | SMILES | IC50 (2D (suspension), SUDHL4, 48 h) [µg/mL] | IC50 [1] [µg/mL] | IC50 [2] [µg/mL] | IC50 [3] [µg/mL]
1 | COc1cccc2c1C(=O)c1c(O)c3c(c(O)c1C2=O)C[C@@](O)(C(=O)CO)C[C@@H]3O[C@H]1C[C@H](N)[C@H](O)[C@H](C)O1 [Doxorubicin, doxorubicin] | 0.09 (≈ 0.166 µM) | 0.4 (≈ 0.736 µM) | 0.4 | 0.4
2 | COc1cc([C@@H]2c3cc4c(cc3[C@@H](O[C@@H]3O[C@@H]5CO[C@@H](C)O[C@H]5[C@H](O)[C@H]3O)[C@H]3COC(=O)[C@H]23)OCO4)cc(OC)c1O [Etoposide, etoposide] | 3.2 (≈ 5.44 µM) | 4.4 (≈ 7.48 µM) | 7 | 9.3
